Test results published in article PMC3914206.

Columns and labels:
panel of 442 kinases [1] = target: T1, panel of 442 kinases (Homo sapiens, UniProt O75385); format: binding; conditions: kinase ULK1; compound concentration 10 µM
T1 construct: purchased KINOMEscan
T1 sequence (O75385 1-1050): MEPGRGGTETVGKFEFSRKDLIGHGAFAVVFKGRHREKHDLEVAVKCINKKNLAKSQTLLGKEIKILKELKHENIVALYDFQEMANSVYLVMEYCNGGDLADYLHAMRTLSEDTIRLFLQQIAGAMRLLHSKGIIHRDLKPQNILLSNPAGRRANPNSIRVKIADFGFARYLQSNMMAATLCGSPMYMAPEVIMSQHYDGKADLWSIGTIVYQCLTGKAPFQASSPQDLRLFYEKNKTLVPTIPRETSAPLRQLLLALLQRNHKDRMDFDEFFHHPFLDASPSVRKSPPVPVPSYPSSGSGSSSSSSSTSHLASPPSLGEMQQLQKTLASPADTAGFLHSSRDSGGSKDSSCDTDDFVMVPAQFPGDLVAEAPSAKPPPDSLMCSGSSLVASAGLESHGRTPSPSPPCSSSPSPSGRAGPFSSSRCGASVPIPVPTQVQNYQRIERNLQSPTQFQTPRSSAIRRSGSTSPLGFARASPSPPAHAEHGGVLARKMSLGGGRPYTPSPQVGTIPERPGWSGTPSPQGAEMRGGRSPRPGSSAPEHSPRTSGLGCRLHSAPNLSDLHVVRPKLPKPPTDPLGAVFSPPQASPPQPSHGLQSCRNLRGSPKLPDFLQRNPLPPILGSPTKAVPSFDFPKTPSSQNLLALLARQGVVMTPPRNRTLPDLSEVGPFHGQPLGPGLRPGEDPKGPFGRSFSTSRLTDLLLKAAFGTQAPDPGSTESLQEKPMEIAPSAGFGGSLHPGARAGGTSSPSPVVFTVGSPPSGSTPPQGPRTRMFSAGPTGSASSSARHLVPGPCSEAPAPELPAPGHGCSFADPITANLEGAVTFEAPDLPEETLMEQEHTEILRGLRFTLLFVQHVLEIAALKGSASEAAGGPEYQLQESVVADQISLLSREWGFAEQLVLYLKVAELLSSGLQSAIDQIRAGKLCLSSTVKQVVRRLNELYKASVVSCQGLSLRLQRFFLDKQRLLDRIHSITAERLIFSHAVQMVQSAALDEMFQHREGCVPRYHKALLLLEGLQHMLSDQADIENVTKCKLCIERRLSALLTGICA
Description: (§1) We assessed the selectivity of members of this scaffold using the KINOMEscan methodology across a near comprehensive panel of 442 kinases [[18,27]].

panel of 442 kinases [2] = target: T2, panel of 442 kinases (Homo sapiens, UniProt P36896); format: binding; conditions: Compound Concentration 10 µM
T2 construct: purchased KINOMEscan
T2 sequence (P36896 24-505): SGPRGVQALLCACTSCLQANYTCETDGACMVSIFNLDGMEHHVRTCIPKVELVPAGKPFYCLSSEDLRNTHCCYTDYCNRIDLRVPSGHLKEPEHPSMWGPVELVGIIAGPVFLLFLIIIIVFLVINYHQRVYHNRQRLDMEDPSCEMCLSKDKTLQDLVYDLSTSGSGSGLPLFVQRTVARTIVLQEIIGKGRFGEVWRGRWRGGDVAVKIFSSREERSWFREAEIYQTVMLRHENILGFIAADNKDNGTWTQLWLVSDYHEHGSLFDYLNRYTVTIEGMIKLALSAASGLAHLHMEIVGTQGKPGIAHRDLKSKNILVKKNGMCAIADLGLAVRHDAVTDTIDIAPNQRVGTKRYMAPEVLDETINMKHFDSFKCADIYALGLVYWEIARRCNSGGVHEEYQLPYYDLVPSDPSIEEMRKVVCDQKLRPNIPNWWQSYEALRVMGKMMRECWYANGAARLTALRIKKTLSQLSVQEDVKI
Description: as §1

COc1cc(C(=O)N2CCC(N3CCN(C)CC3)CC2)ccc1Nc1ncc2c(n1)N(C)c1ccccc1C(=O)N2C [15 (LRRK2-IN-1)]
% Ctrl, ULK1 (panel of 442 kinases [1]): 80 % Ctrl | KINOMEscan: ACVR1B (panel of 442 kinases [2]): 100

COc1cc(C(=O)N2CCC(N3CCN(C)CC3)CC2)ccc1Nc1ncc2c(n1)N1CCc3cccc(c31)C(=O)N2C [Compound 24]
% Ctrl, ULK1 (panel of 442 kinases [1]): 100 % Ctrl

COc1cc(C(=O)N2CCC(N3CCN(C)CC3)CC2)ccc1Nc1ncc2c(n1)N(C1CCCC1)c1ccccc1C(=O)N2C [Compound 25, 11-cyclopentyl-2-((2-methoxy-4-(4-(4-methylpiperazin-1-yl)piperidine-1-carbonyl)phenyl)amino)-5-methyl-5H-benzo[e]pyrimido[5,4-b][1,4]diazepin-6(11H)-one]
% Ctrl, ULK1 (panel of 442 kinases [1]): 100 % Ctrl | KINOMEscan: ACVR1B (panel of 442 kinases [2]): 97

CCOc1cc(C(=O)N2CCC(N3CCN(C)CC3)CC2)ccc1Nc1ncc2c(n1)N(C1CCCC1)c1ccccc1C(=O)N2C [Compound 26]
% Ctrl, ULK1 (panel of 442 kinases [1]): 100 % Ctrl | KINOMEscan: ACVR1B (panel of 442 kinases [2]): 100
